Source: patent US6737383B1, “Herbicidal oxadiazolidines” (priority 1999, dated 2004)

Tests used:
crabgrass = test: Test B pre/postemergence crabgrass; assay type: in vivo, Digitaria sanguinalis
Outline: (§1)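 Herbicidal effect was estimated by eye on a ten-point control scale after plants spent twelve to sixteen days in a greenhouse following soil or foliar treatment. Foliar sprays targeted plants at one to four leaves; all doses were formulated in a non-phytotoxic solvent with surfactant.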

morningglory = test: Test B pre/postemergence morningglory; assay type: in vivo, Ipomoea hederacea
Outline: as §1

sugar beet = test: Test B pre/postemergence sugar beet; assay type: in vivo, Beta vulgaris
Outline: as §1

purple nutsedge = test: Test B pre/postemergence purple nutsedge; assay type: in vivo, Cyperus rotundus
Outline: as §1

bedstraw = test: Test B pre/postemergence bedstraw; assay type: in vivo, Galium aparine
Outline: as §1

pigweed = test: Test B pre/postemergence pigweed; assay type: in vivo, Amaranthus retroflexus
Outline: as §1

blackgrass = test: Test B pre/postemergence blackgrass; assay type: in vivo, Alopecurus myosuroides
Outline: as §1

cocklebur = test: Test B pre/postemergence cocklebur; assay type: in vivo, Xanthium strumarium
Outline: as §1

wheat = test: Test B pre/postemergence wheat; assay type: in vivo, Triticum aestivum
Outline: as §1

rape = test: Test B pre/postemergence rape; assay type: in vivo, Brassica napus
Outline: as §1

wild oat = test: Test B pre/postemergence wild oat; assay type: in vivo, Avena fatua
Outline: as §1

surinam grass = test: Test B pre/postemergence surinam grass; assay type: in vivo, Brachiaria decumbens
Outline: as §1

rice = test: Test B flood test rice; assay type: in vivo, Oryza sativa
Outline: (§2)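 Flood test on plants grown to the 2-leaf stage; treated plants kept in greenhouse twelve to sixteen days, then visually rated against controls on a 0 (no effect) to 10 (complete control) scale.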

giant foxtail = test: Test B pre/postemergence giant foxtail; assay type: in vivo, Setaria faberii
Outline: as §1

corn = test: Test B pre/postemergence corn; assay type: in vivo, Zea mays
Outline: as §1

bamyardgrass = test: Test B flood test barnyardgrass; assay type: in vivo, Echinochloa crus-galli
Outline: as §2

[1] = Preemergence, Rate 62 g/ha, scale of 0 to 10 where 0 is no effect and 10 is complete control
[2] = Preemergence, Rate 125 g/ha, 0 is no effect, 10 is complete control
[3] = Preemergence, Rate 250 g/ha, scale 0 to 10, 0 is no effect, 10 is complete control
[4] = Preemergence, Rate 500 g/ha, scale of 0 to 10 where 0 is no effect and 10 is complete control
[5] = Rate 62 g/ha, Postemergence, scale of 0 to 10 where 0 is no effect and 10 is complete control
[6] = Rate 125 g/ha, Postemergence, scale 0 to 10
[7] = Rate 500 g/ha, Postemergence, scale 0 to 10
[8] = Rate 62 g/ha, headed Pre-emergence (flood test species), scale 0 to 10 (0 no effect, 10 complete control)
[9] = Rate 125 g/ha, Pre-emergence, flood test species, scale 0 to 10 where 0 is no effect and 10 is complete control
[10] = Rate 250 g/ha, Pre-emergence, flood-test species, scale 0 to 10, 0 is no effect, 10 is complete control
[11] = Rate 500 g/ha, headed Pre-emergence (flood test species), scale 0 to 10 (0 no effect, 10 complete control)

## Cc1nc(C)c(-n2c(=O)on(C(=O)N(c3ccccc3)C(C)C)c2=O)s1 [Compound 197]
crabgrass; [1]
  Crabgrass plant response rating: 0
crabgrass; [2]
  Crabgrass plant response rating (0 to 10 scale): 0
crabgrass; [3]
  Crabgrass plant response rating: 0
crabgrass; [4]
  Plant response rating, Crabgrass: 3
crabgrass; [5]
  Crabgrass plant response rating: 0
crabgrass; [6]
  Crabgrass plant response rating: 0
crabgrass; Rate 250 g/ha, Postemergence
  Plant response rating (0 to 10; 0 is no effect, 10 is complete control), Crabgrass: 0
crabgrass; [7]
  Crabgrass plant response rating: 2
morningglory; [1]
  Morningglory plant response rating: 0
morningglory; [2]
  Morningglory plant response rating (0 to 10 scale): 0
morningglory; [3]
  Morningglory plant response rating: 0
morningglory; [4]
  Plant response rating, Morningglory: 0
morningglory; [5]
  Morningglory plant response rating: 3
morningglory; [6]
  Morningglory plant response rating: 5
morningglory; Rate 250 g/ha, Postemergence
  Plant response rating (0 to 10; 0 is no effect, 10 is complete control), Morningglory: 5
morningglory; [7]
  Morningglory plant response rating: 0
Sugar beet; [1]
  Sugarbeets plant response rating: 0
Sugar beet; [2]
  Sugarbeets plant response rating (0 to 10 scale): 0
Sugar beet; [3]
  Sugarbeets plant response rating: 0
Sugar beet; [4]
  Plant response rating, Sugarbeets: 0
Sugar beet; [5]
  Sugarbeets plant response rating: 0
Sugar beet; [6]
  Sugarbeets plant response rating: 0
Sugar beet; Rate 250 g/ha, Postemergence
  Plant response rating (0 to 10; 0 is no effect, 10 is complete control), Sugarbeets: 0
Sugar beet; [7]
  Sugarbeets plant response rating: 0
Purple nutsedge; [1]
  Nutsedge plant response rating: 0
Purple nutsedge; [2]
  Nutsedge plant response rating (0 to 10 scale): 0
Purple nutsedge; [3]
  Nutsedge plant response rating: 0
Purple nutsedge; [4]
  Plant response rating, Nutsedge: 0
Purple nutsedge; [5]
  Nutsedge plant response rating: 0
Purple nutsedge; [6]
  Nutsedge plant response rating: 0
Purple nutsedge; Rate 250 g/ha, Postemergence
  Plant response rating (0 to 10; 0 is no effect, 10 is complete control), Nutsedge: 0
Purple nutsedge; [7]
  Nutsedge plant response rating: 0
bedstraw; [1]
  Bedstraw plant response rating: 0
bedstraw; [2]
  Bedstraw plant response rating (0 to 10 scale): 0
bedstraw; [3]
  Bedstraw plant response rating: 0
bedstraw; [4]
  Plant response rating, Bedstraw: 0
bedstraw; [5]
  Bedstraw plant response rating: 0
bedstraw; [6]
  Bedstraw plant response rating: 0
bedstraw; Rate 250 g/ha, Postemergence
  Plant response rating (0 to 10; 0 is no effect, 10 is complete control), Bedstraw: 0
pigweed; [1]
  Redroot pigweed plant response rating: 0
pigweed; [2]
  Redroot pigweed plant response rating (0 to 10 scale): 0
pigweed; [3]
  Redroot pigweed plant response rating: 0
pigweed; [4]
  Plant response rating, Redroot pigweed: 0
pigweed; [5]
  Redroot pigweed plant response rating: 0
pigweed; [6]
  Redroot pigweed plant response rating: 0
pigweed; Rate 250 g/ha, Postemergence
  Plant response rating (0 to 10; 0 is no effect, 10 is complete control), Redroot pigweed: 0
pigweed; [7]
  Redroot pigweed plant response rating: 0
blackgrass; [1]
  Blackgrass plant response rating: 0
blackgrass; [2]
  Blackgrass plant response rating (0 to 10 scale): 0
blackgrass; [3]
  Blackgrass plant response rating: 0
blackgrass; [4]
  Plant response rating, Blackgrass: 0
blackgrass; [5]
  Blackgrass plant response rating: 0
blackgrass; [6]
  Blackgrass plant response rating: 0
blackgrass; Rate 250 g/ha, Postemergence
  Plant response rating (0 to 10; 0 is no effect, 10 is complete control), Blackgrass: 0
blackgrass; [7]
  Blackgrass plant response rating: 0
cocklebur; [1]
  Cocklebur plant response rating: 0
cocklebur; [2]
  Cocklebur plant response rating (0 to 10 scale): 0
cocklebur; [3]
  Cocklebur plant response rating: 0
cocklebur; [4]
  Plant response rating, Cocklebur: 0
cocklebur; [5]
  Cocklebur plant response rating: 0
cocklebur; [6]
  Cocklebur plant response rating: 0
cocklebur; Rate 250 g/ha, Postemergence
  Plant response rating (0 to 10; 0 is no effect, 10 is complete control), Cocklebur: 0
cocklebur; [7]
  Cocklebur plant response rating: 0
wheat; [1]
  Wheat plant response rating: 0
wheat; [3]
  Wheat plant response rating: 0
wheat; [4]
  Plant response rating, Wheat: 0
wheat; [5]
  Wheat plant response rating: 0
wheat; [6]
  Wheat plant response rating: 0
wheat; Rate 250 g/ha, Postemergence
  Plant response rating (0 to 10; 0 is no effect, 10 is complete control), Wheat: 0
rape; [1]
  Rape plant response rating: 0
rape; [2]
  Rape plant response rating (0 to 10 scale): 0
rape; [3]
  Rape plant response rating: 0
rape; [4]
  Plant response rating, Rape: 0
rape; [5]
  Rape plant response rating: 0
rape; [6]
  Rape plant response rating: 0
rape; Rate 250 g/ha, Postemergence
  Plant response rating (0 to 10; 0 is no effect, 10 is complete control), Rape: 0
rape; [7]
  Rape plant response rating: 0
Wild oat; [1]
  Wild oats plant response rating: 0
Wild oat; [3]
  Wild oats plant response rating: 0
Wild oat; [4]
  Plant response rating, Wild oats: 0
Wild oat; [5]
  Wild oats plant response rating: 0
Wild oat; [6]
  Wild oats plant response rating: 0
Wild oat; Rate 250 g/ha, Postemergence
  Plant response rating (0 to 10; 0 is no effect, 10 is complete control), Wild oats: 0
Surinam grass; [1]
  B. signalgrass plant response rating: 0
Surinam grass; [2]
  B. signalgrass plant response rating (0 to 10 scale): 0
Surinam grass; [3]
  B. signalgrass plant response rating: 0
Surinam grass; [4]
  Plant response rating, B. signalgrass: 0
Surinam grass; [5]
  B. signalgrass plant response rating: 0
Surinam grass; Rate 125 g/ha, Postemergence, scale 0 (no effect) to 10 (complete control)
  B. signalgrass plant response rating: 0
Surinam grass; Rate 250 g/ha, Postemergence, scale 0 to 10, 0 is no effect, 10 is complete control
  Plant response rating, B. signalgrass: 0
Surinam grass; Rate 500 g/ha, Postemergence, scale 0 to 10, 0 no effect, 10 complete control
  B. signalgrass plant response rating: 0
rice; [8]
  Rice plant response rating: 0
rice; [9]
  Rice plant response rating: 0
rice; [10]
  Rice plant response rating: 0
rice; [11]
  Plant response rating, Rice: 0
Giant foxtail; [1]
  Giant foxtail plant response rating: 0
Giant foxtail; [2]
  Giant foxtail plant response rating (0 to 10 scale): 0
Giant foxtail; [3]
  Giant foxtail plant response rating: 0
Giant foxtail; [4]
  Plant response rating, Giant foxtail: 3
Giant foxtail; [5]
  Giant foxtail plant response rating: 0
Giant foxtail; [6]
  Giant foxtail plant response rating: 0
Giant foxtail; Rate 250 g/ha, Postemergence
  Plant response rating (0 to 10; 0 is no effect, 10 is complete control), Giant foxtail: 0
Giant foxtail; [7]
  Giant foxtail plant response rating: 3
corn; [1]
  Corn plant response rating: 0
corn; [2]
  Corn plant response rating (0 to 10 scale): 0
corn; [3]
  Corn plant response rating: 0
corn; [4]
  Plant response rating, Corn: 0
corn; [5]
  Corn plant response rating: 0
corn; [6]
  Corn plant response rating: 0
corn; Rate 250 g/ha, Postemergence
  Plant response rating (0 to 10; 0 is no effect, 10 is complete control), Corn: 0
corn; [7]
  Corn plant response rating: 0
bamyardgrass; [8]
  Barnyardgrass plant response rating: 0
bamyardgrass; [9]
  Barnyardgrass plant response rating: 0
bamyardgrass; [10]
  Barnyardgrass plant response rating: 0
bamyardgrass; [11]
  Plant response rating, Barnyardgrass: 0
